These are literature values, as cited in paper PMC7984154 (Chemmedchem, 2020).

Series [1] deals with FAP. The following applies: cancer indications, also in combination with other chemotherapies.
For series [2] the following is noted: steady state, oral dose of 5 mg.

`CC(C)[C@H](N)C(=O)N1CCC[C@H]1B(O)O` [PT100, talabostat]: the “efficacy in the clinical setting” value in series [1] is “minimal efficacy”.

Take `CC#CCn1c(N2CCC[C@@H](N)C2)nc2c1c(=O)n(Cc1nc(C)c3ccccc3n1)c(=O)n2C` [linagliptin]: the “clinical maximum plasma concentration” value in series [2] is recorded as 12 nM. Moreover, the maximal plasma concentrations (single dose 600 mg) is about 4 µM. The highest tolerable dose (single rising dose studies) is reported as 600 mg.
